Literature values in US8791093B2, “Pharmaceutical delivery systems for treatment of substance abuse and other addictions” (priority 2009, dated 2014).

How the values were obtained:
[1] = molecular target: T1, ALDH-I (Homo sapiens, UniProt P05091)
T1 sequence (P05091 18-517): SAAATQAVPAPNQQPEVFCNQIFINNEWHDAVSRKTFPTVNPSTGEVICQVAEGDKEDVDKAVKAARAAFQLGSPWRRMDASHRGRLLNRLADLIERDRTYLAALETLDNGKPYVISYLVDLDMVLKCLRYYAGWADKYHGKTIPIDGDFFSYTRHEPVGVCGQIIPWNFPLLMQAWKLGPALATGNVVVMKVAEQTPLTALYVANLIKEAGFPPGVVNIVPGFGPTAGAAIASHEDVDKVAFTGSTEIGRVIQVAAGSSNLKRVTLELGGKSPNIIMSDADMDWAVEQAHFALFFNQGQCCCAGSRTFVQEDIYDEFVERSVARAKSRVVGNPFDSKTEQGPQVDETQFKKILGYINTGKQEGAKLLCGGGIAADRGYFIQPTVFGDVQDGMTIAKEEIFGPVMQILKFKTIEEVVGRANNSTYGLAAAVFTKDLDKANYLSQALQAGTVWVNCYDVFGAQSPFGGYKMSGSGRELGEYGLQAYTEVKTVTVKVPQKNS

[2] = molecular target: T2, ALDH-II (Homo sapiens, UniProt P00352)
T2 sequence (P00352 1-501): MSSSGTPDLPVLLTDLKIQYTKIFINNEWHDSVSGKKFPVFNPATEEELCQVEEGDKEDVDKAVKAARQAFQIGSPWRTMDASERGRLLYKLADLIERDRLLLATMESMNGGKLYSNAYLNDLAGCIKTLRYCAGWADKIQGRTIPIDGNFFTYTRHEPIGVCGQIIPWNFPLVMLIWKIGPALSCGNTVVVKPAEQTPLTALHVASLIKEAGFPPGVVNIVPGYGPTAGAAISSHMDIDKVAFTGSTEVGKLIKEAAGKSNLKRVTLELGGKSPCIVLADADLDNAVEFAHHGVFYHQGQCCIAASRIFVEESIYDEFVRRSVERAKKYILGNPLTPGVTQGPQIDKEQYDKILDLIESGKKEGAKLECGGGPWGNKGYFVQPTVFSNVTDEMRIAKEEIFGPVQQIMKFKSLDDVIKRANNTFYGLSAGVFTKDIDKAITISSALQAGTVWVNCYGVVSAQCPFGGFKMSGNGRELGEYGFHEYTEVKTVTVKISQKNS

**Q.** For `CCN(CC)C(=S)SSC(=S)N(CC)CC` [Disulfiram, diethylcarbamothioylsulfanyl diethylaminomethanedithioate], which “inhibition of ALDH-I” value [1] is on record?
**A.** Its value is “only slightly”.

**Q.** And the “inhibition of ALDH-II” value [2]?
**A.** Its value is “potent irreversible inhibitor”.
